Drawing on patent US20160108039A1, “TRIAZOLOPYRIDINES AS THROMBIN INHIBITORS FOR THE TREATMENT OF THROMBOEMBOLIC DISEASES” (BAYER PHARMA AKTIENGESELLSCHAFT, priority 2013, published 2016), this text covers IC50 for 21 molecules.

The structures appear in SMILES notation.

Assay [1] deals with T1, thrombin (Homo sapiens, UniProt P00734). Kind of assay: Measurement of the thrombin inhibition in buffer. The format is biochemical. As to conditions: human thrombin 0.06 nmol/l in Tris buffer pH 7.4, 22° C., substrate Boc-Asp(OBzl)-Pro-Arg-AMC; in some cases means of individual determinations. On the procedure: To determine the thrombin inhibition of the substances listed above, a biochemical test system is constructed in which the conversion of a thrombin substrate is used for determining the enzymatic activity of human thrombin. Here, thrombin cleaves aminomethylcoumarin, which is measured fluorescently, from the peptic substrate. The determinations are carried out in microtitre plates.
Substances to be tested are dissolved in various concentrations in dimethyl sulphoxide and incubated for 15 min with human thrombin (0.06 nmol/l dissolved in 50 mmol/l of Tris buffer [C,C,C-tris(hydroxymethyl)aminomethane], 100 mmol/l of sodium chloride, 0.1% BSA [bovine serum albumin], pH 7.4) at 22° C. The substrate (5 μmol/l Boc-Asp(OBzl)-Pro-Arg-AMC from Bachem) is then added. After 30 min of incubation, the sample is excited at a wavelength of 360 nm and the emission is measured at 460 nm. The measured emissions of the test mixtures with test substance are compared to the control mixtures without test substance (only dimethyl sulphoxide instead of test substance in dimethyl sulphoxide) and IC50 values are calculated from the concentration/activity relationships. Representative activity data from this test are given in Table 1 below (in some cases as means of individual determinations): […]

The target in assay [2] is T1, thrombin. Kind of assay: Thrombin-inhibitory activity in plasma samples (ecarin-activated). The format is biochemical. As to conditions: citrate plasma, ecarin activation, fluorogenic thrombin substrate; read at about 70% of maximum signal (about 12 min); in some cases means. On the procedure: To determine the inhibition of thrombin in plasma samples, plasma prothrombinase is activated by ecarin. Thrombin activity and/or its inhibition by potential inhibitors is/are then measured fluorescently by addition of a substrate.
The substances to be tested are dissolved in various concentrations in dimethyl sulphoxide and diluted with water. In white 96-well flat-bottomed plates, 20 μl of substance dilution are mixed with 20 μl of ecarin solution (ecarin reagent, from Sigma E-0504, final concentration 20 mU per reaction) in Ca buffer (200 mM Hepes+560 mM sodium chloride+10 mM calcium chloride+0.4% PEG) or with 20 μl of Ca buffer (as unstimulated control). Furthermore, 20 μl of fluorogenic thrombin substrate (from Bachem 1-1120, final concentration 50 μmol/l) and 20 μl of citrate plasma (from Octapharma) are added, and the mixture is homogenized well. The plate is measured in a SpectraFluorplus Reader using a 360 nm excitation filter and a 465 nm emission filter every minute over 20 minutes. […] Representative activity data from this test are given in Table 2 below (in some cases as means of individual determinations): […]

By IC50 is commonly meant the concentration needed to halve the response being measured. Regarding `COc1cc(C(=O)N2CC(C)OCC2C2CC(O)C2)cn2nc(NCc3cccc(Cl)c3)nc12` (single isomer, unassigned) [Example 4, {2-[(3-Chlorobenzyl)amino]-8-methoxy[1,2,4]triazolo[1,5-a]pyridin-6-yl}[5-(3-hydroxycyclobutyl)-2-methylmorpholin-4-yl]methanone], the IC50 against thrombin [1] was 0.0094 µM; on thrombin [2] it was 0.023 µM.
With `CC[C@@H]1COC(C)(CCO)CN1C(=O)c1cc(OC)c2nc(NCc3cccc(Cl)c3)nn2c1` (stereo partly drawn) [Example 69, {2-[(3-Chlorobenzyl)amino]-8-methoxy[1,2,4]triazolo[1,5-a]pyridin-6-yl}[(5R)-5-ethyl-2-(2-hydroxyethyl)-2-methylmorpholin-4-yl]methanone], the IC50 against thrombin [1] was 0.025 µM; on thrombin [2], 0.039 µM.
On to `COc1cc(C(=O)N2CC(C)OCC23CC(O)C3)cn2nc(NCc3cccc(Cl)c3)nc12` (single isomer, unassigned) [Example 21, {2-[(3-Chlorobenzyl)amino]-8-methoxy[1,2,4]triazolo[1,5-a]pyridin-6-yl}[(trans)-2-hydroxy-7-methyl-8-oxa-5-azaspiro[3.5]non-5-yl]methanone], for which the figures for the IC50 against thrombin [1] and at thrombin [2] were 0.043 µM and 0.067 µM, respectively.
For `COc1cc(C(=O)N2CC(C)(C)OC[C@H]2CCO)cn2nc(NCc3cccc(Cl)c3)nc12` [Example 7, {2-[(3-Chlorobenzyl)amino]-8-methoxy[1,2,4]triazolo[1,5-a]pyridin-6-yl}[(5R)-5-(2-hydroxyethyl)-2,2-dimethylmorpholin-4-yl]methanone] the same measures were 0.02 µM and 0.024 µM.
Consider `COc1cc(C(=O)N2CC(C)OCC2C2CC(O)C2)cn2nc(NCc3cccc(Cl)c3)nc12` (stereo not drawn) [Example 2, {2-[(3-Chlorobenzyl)amino]-8-methoxy[1,2,4]triazolo[1,5-a]pyridin-6-yl}[5-(3-hydroxycyclobutyl)-2-methylmorpholin-4-yl]methanone], for which the values for the IC50 against thrombin [1] and at thrombin [2] were 0.019 µM and 0.02 µM, respectively.
As to `COc1cc(C(=O)N2CC(C)OCC2CC(C)(C)O)cn2nc(NCc3cccc(Cl)c3)nc12` (racemic) [Example 42, {2-[(3-Chlorobenzyl)amino]-8-methoxy[1,2,4]triazolo[1,5-a]pyridin-6-yl}[5-(2-hydroxy-2-methylpropyl)-2-methylmorpholin-4-yl]methanone], the IC50 against thrombin [1] is 0.037 µM; against thrombin [2], 0.054 µM.
As to `COc1cc(C(=O)N2CC(C)(C)OCC2C(C)O)cn2nc(NCc3cccc(Cl)c3)nc12` (single isomer, unassigned) [Example 68, {2-[(3-Chlorobenzyl)amino]-8-methoxy[1,2,4]triazolo[1,5-a]pyridin-6-yl}[5-(1-hydroxyethyl)-2,2-dimethylmorpholin-4-yl]methanone], the IC50 is 0.049 µM against thrombin [1] and 0.106 µM against thrombin [2].
With `COc1cc(C(=O)N2CC(C)OCC2CCO)cn2nc(NCc3cccc(Cl)c3)nc12` (single isomer, unassigned) [Example 17, {2-[(3-Chlorobenzyl)amino]-8-methoxy[1,2,4]triazolo[1,5-a]pyridin-6-yl}[5-(2-hydroxyethyl)-2-methylmorpholin-4-yl]methanone], the IC50 is 0.095 µM against thrombin [1] and 0.119 µM on thrombin [2].
For the molecule `COc1cc(C(=O)N2CC(C)OCC2CCO)cn2nc(NCc3cccc(Cl)c3)nc12` (single isomer, unassigned) [Example 16, {2-[(3-Chlorobenzyl)amino]-8-methoxy[1,2,4]triazolo[1,5-a]pyridin-6-yl}[5-(2-hydroxyethyl)-2-methylmorpholin-4-yl]methanone], the 50% inhibitory concentration (IC50) at thrombin [1] worked out at 0.052 µM; against thrombin [2], 0.077 µM.
For the molecule `CCC1C(=O)N2CCC2CN1C(=O)c1cc(OC)c2nc(NCc3cccc(Cl)c3)nn2c1` (stereo not drawn) [Example 58, 4-({2-[(3-Chlorobenzyl)amino]-8-methoxy[1,2,4]triazolo[1,5-a]pyridin-6-yl}carbonyl)-3-ethyl-1,4-diazabicyclo[4.2.0]octan-2-one], the IC50 against thrombin [1] stood at 0.036 µM; at thrombin [2], 0.039 µM.
Consider `COc1cc(C(=O)N2C[C@H](OCC(F)F)CC2CO)cn2nc(NCc3cccc(Cl)c3)nc12` (single isomer, unassigned) [Example 75], for which the IC50 was determined as 0.023 µM at thrombin [1] and 0.074 µM against thrombin [2].
Turning to `COc1cc(C(=O)N2CC(C)(C)OCC2CC(C)O)cn2nc(NCc3cccc(Cl)c3)nc12` (single isomer, unassigned) [Example 49, {2-[(3-Chlorobenzyl)amino]-8-methoxy[1,2,4]triazolo[1,5-a]pyridin-6-yl}[5-(2-hydroxypropyl)-2,2-dimethylmorpholin-4-yl]methanone], the results for the IC50 against thrombin [1] and at thrombin [2] were 0.019 µM and 0.024 µM, respectively.
On to `COc1cc(C(=O)N2CC(C)(CC(C)O)OCC2(C)C)cn2nc(NCc3cccc(Cl)c3)nc12` (single isomer, unassigned) [Example 39, {2-[(3-Chlorobenzyl)amino]-8-methoxy[1,2,4]triazolo[1,5-a]pyridin-6-yl}[2-(2-hydroxypropyl)-2,5,5-trimethylmorpholin-4-yl]methanone], for which the IC50 against thrombin [1] turned out to be 0.03 µM; at thrombin [2], 0.034 µM.
On to `COc1cc(C(=O)N2CC(C)(CCO)OCC2(C)C)cn2nc(NCc3cccc(Cl)c3)nc12` (racemic) [Example 31, {2-[(3-Chlorobenzyl)amino]-8-methoxy[1,2,4]triazolo[1,5-a]pyridin-6-yl}[2-(2-hydroxyethyl)-2,5,5-trimethylmorpholin-4-yl]methanone], for which the IC50 stood at 0.011 µM against thrombin [1] and 0.015 µM against thrombin [2].
Turning to `COc1cc(C(=O)N2CC(C)(C)OCC2CC(C)O)cn2nc(NCc3cccc(Cl)c3)nc12` (stereo not drawn) [Example 45, {2-[(3-Chlorobenzyl)amino]-8-methoxy[1,2,4]triazolo[1,5-a]pyridin-6-yl}[5-(2-hydroxypropyl)-2,2-dimethylmorpholin-4-yl]methanone], the IC50 is 0.033 µM against thrombin [1] and 0.034 µM against thrombin [2].
Take `COc1cc(C(=O)N2CC3(CC3)NC(=O)C2C)cn2nc(NCc3cccc(Cl)c3)nc12` (single isomer, unassigned) [Example 62, 7-({2-[(3-Chlorobenzyl)amino]-8-methoxy[1,2,4]triazolo[1,5-a]pyridin-6-yl}carbonyl)-6-methyl-4,7-diazaspiro[2.5]octan-5-one]: the half-inhibitory concentration (IC50) at thrombin [1] amounted to 0.017 µM; against thrombin [2], 0.039 µM.
For the molecule `COc1cc(C(=O)N2CC(C)(C)OCC2CF)cn2nc(NCc3cccc(Cl)c3)nc12` (racemic) [Example 12, {2-[(3-Chlorobenzyl)amino]-8-methoxy[1,2,4]triazolo[1,5-a]pyridin-6-yl}[5-(fluoromethyl)-2,2-dimethylmorpholin-4-yl]methanone], the IC50 at thrombin [1] amounted to 0.035 µM; against thrombin [2], 0.056 µM.
With `COc1cc(C(=O)N2CC(C)(C)OCC2(C)CO)cn2nc(NCc3cccc(Cl)c3)nc12` (racemic) [Example 8, {2-[(3-Chlorobenzyl)amino]-8-methoxy[1,2,4]triazolo[1,5-a]pyridin-6-yl}[5-(hydroxymethyl)-2,2,5-trimethylmorpholin-4-yl]methanone], the IC50 on thrombin [1] was found to be 0.02 µM; against thrombin [2], 0.029 µM.
For `COc1cc(C(=O)N2CC(C)(C)OCC2(C)CO)cn2nc(NCc3cccc(Cl)c3)nc12` (single isomer, unassigned) [Example 10, {2-[(3-Chlorobenzyl)amino]-8-methoxy[1,2,4]triazolo[1,5-a]pyridin-6-yl}[5-(hydroxymethyl)-2,2,5-trimethylmorpholin-4-yl]methanone], the half-maximal inhibitory concentration (IC50) was 0.039 µM at thrombin [1] and 0.041 µM at thrombin [2].
Take `COc1cc(C(=O)N2CC(C)(C)OCC2(C)CO)cn2nc(NCc3cccc(Cl)c3)nc12` (single isomer, unassigned) [Example 9, {2-[(3-Chlorobenzyl)amino]-8-methoxy[1,2,4]triazolo[1,5-a]pyridin-6-yl}[5-(hydroxymethyl)-2,2,5-trimethylmorpholin-4-yl]methanone]: the IC50 turned out to be 0.055 µM against thrombin [1] and 0.079 µM on thrombin [2].
Consider `COc1cc(C(=O)N2CC(C)OCC2CCO)cn2nc(NC(CF)c3cccc(Cl)c3)nc12` (single isomer, unassigned) [Example 19, (2-{[1-(3-Chlorophenyl)-2-fluoroethyl]amino}-8-methoxy[1,2,4]triazolo[1,5-a]pyridin-6-yl) [5-(2-hydroxyethyl)-2-methylmorpholin-4-yl]methanone], for which the IC50 on thrombin [1] is 0.011 µM; against thrombin [2], 0.01 µM.
